In paper PMC8164609 (Environmental Science and Pollution Research International, 2021):
Values joined by “and” are separate entries in the source; they are usually repeats but may differ in a detail not shown here. Equal entries are not always repeated. Where two headings read alike, the source gives them in different places.

Key:
S. cerevisiae BMA64/luc = details: values higher than 2 are considered toxic
Description: (§1) Yeast bioluminescent assay was performed as previously described (Omoruyi and Pohjanvirta [2018]). Two recombinant yeasts, Saccharomyces cerevisiae BMAEREluc/ERα and Saccharomyces cerevisiae BMA64/luc, were kindly provided by Dr. Johanna Rajasärkkä, Department of Food and Environmental Sciences, Faculty of Agriculture and Forestry, University of Helsinki. In the BMAEREluc/ERα, human ERα is expressed. After estrogen-like chemicals bind to ERα, the dimerized receptor binds to a specific DNA sequence called estrogen response element (ERE), in the promotor region of the luc reporter gene, inducing its expression. In BMA64/luc, the luciferase is expressed constitutively, and this strain can be used for the evaluation of cytotoxicity of test compounds.
Both strains were revived from glycerol stock solution on agar and broth forms of synthetic complete medium supplemented with the required amino acids. After the absence of contamination was confirmed by observing single colonies’ morphology on agar plate, approximately 10 μL of cultured yeasts in broth was transferred to 4 mL of synthetic defined (SD) medium supplemented with the required amino acids. The culture was incubated at 30°C on a shaker incubator (200 rpm). After 24-h incubation, the culture was diluted with SD broth to reach the optimal density (OD600) of 0.4 CFU/mL. Subsequently, the culture was incubated in the same incubation condition until the OD600 reached 0.6–0.7 CFU/mL.
(§2) Next, 90 μL of cultured yeasts containing 1:20 luciferin solution (0.042 g luciferin dissolved in 9.75 mL of 0.2 M trisodium citrate, and 5.525 mL of 0.2 M citrate, pH 5) was pipetted into every well of a white 96-well flat-bottom plate, and 10 μL of test compounds in a defined concentration range (diluted in 5% EtOH) were added. The plate was incubated at 30°C for approximately 2.5 h, and was then shaken briefly. The luminescence measurement was performed with Luminoskan Ascent microplate luminometer (Thermo Labsystems) using the recommended settings as follows: 1000 ms integration time, single measurement mode, shaking at 60 rpm for 5 s prior to measurement.
Each concentration of test compounds and controls in the assay was tested in triplicate, and the experiment was performed twice.
* The Correction Factor is the luminescence of the strain BMA64/luc with blank solvent divided by the luminescence of the control strain with the sample. Values higher than 2 are considered toxic (Leskinen et al. 2005).
* The Correction Factor is the luminescence of the strain BMA64/luc with blank solvent divided by the luminescence of the control strain with the sample. Values higher than 2 are considered toxic (Leskinen et al. 2005). […] Each experiment was performed in triplicate.

MCF-7 cells [1] = assay: LDH cytotoxicity test; details: 24 h, up to 10^−4 M
Description: Cytotoxicity was assessed by lactate dehydrogenase (LDH) release. For LDH measurement, Pierce LDH Cytotoxicity Assay Kit (Thermo Scientific, Rockford, USA) was used. MCF-7 cells were seeded at 2.8×10^5 in a transparent 96-well plate, and corner cells of the plate were filled with PBS to prevent the edge effect. SF medium containing DMEM without phenol red, 1% charcoal-stripped FBS, and 4 mM L-glutamine were used for this assay. Plates were incubated for 24 h, and then the cells were treated with test compounds at concentrations ranging from 10^−14 to 10^−4 M or vehicle for another 24 h. On day 3, culture supernatant was collected in a separate 96-well plate, and the assay was continued according to the manufacturer’s instructions. Final absorbance was measured with the microplate reader at 490 and 680 nm. […] Vehicle control was 0.1% EtOH or DMSO. All the exposures were in triplicate, and the experiment was carried out twice.

MCF-7 cells [2] = assay: MCF-7 cell proliferation assay (MTT reduction); format: cell-based, human; details: for EC50: Homo sapiens
Description: MCF-7 cell line which is sensitive to estrogen (ERα^+) was kindly provided by Dr. Sari Tojkander (Department of Veterinary Biosciences, Faculty of Veterinary Medicine, University of Helsinki). Cells were usually grown in T25 or T75 flasks containing DMEM with or without phenol red and supplemented with 7–10% FBS and 4 mM L-glutamine at 37°C in 5% CO2/95% humidified atmosphere. In order to eliminate the disturbing effect of hormones usually present in FBS, cell culture medium supplemented with commercially available charcoal-stripped FBS and 4 mM L-glutamine (SF medium) was used for experiments.
The effect of EEDCs on the proliferation of MCF-7 cells was assessed as previously described by measuring the capacity of the cells in each well to reduce MTT reagent (Van Meeuwen et al. [2007]). Approximately 5000 cells/200 μL of SF medium containing DMEM without phenol red, 5% charcoal-stripped FBS, and 4 mM L-glutamine were seeded per well in a 96-well cell culture plate. On day 2, cells were treated with the SF medium containing test compounds or vehicle. The final concentration of the solvents DMSO and EtOH was lower than 0.1%. On day 5, the SF medium containing test compounds or vehicle were refreshed. On day 8, cells were washed with PBS twice and then incubated with the SF medium containing 1 mg/mL MTT reagent for 1 h. The ability of MCF-7 cells to reduce MTT was measured at the reference wavelength of 595 nm using a microplate reader (Multiskan Ascent, Thermo Fisher Scientific). All the exposures were in triplicate.
The dose-response curves of test samples were plotted against logarithmic-transformed concentrations.

MCF-7 cells [3] = assay: In vitro micronucleus assay for cytokinesis block; format: cell-based, human; details: 24 h; for Micronuclei per 1000 binucleated cells, Replicates: single replicate values
Description: The genotoxicity of EEDCs to MCF-7 cells was assessed by the in vitro micronucleus assay for cytokinesis block. MCF-7 cells were seeded at a density of 5×10^4/well in a 12-well plate in SF medium containing DMEM, 7% charcoal-stripped FBS and 4 mM L-glutamine. These cells were treated with test compounds or the positive control for 24 h. Then, cells were washed twice with PBS, treated with 2 μg/mL cytochalasin B, and incubated for 1.5–2 normal cell cycle lengths (~24 h for MCF-7 cells). Finally, cells were washed with PBS and fixed with 4% paraformaldehyde for 10–15 min (in PBS, pH 6.9). Before staining cells with 5% Giemsa stain for 20 min, plates were washed again with PBS and dried. The frequency of micronuclei per 1000 binucleated cells was counted for each well, and the ratio of micronucleus frequency in treated vs. control cells was defined as fold induction. Cells in mitosis were omitted.

MCF-7 cells [4] = system: MCF-7 cells; design: method as in Blanquer-Rosselló et al. [2013]; details: 0.001–20 μM, ref Blanquer-Rosselló et al. [2013]; cited from earlier work
MCF-7 cells [5] = system: MCF-7 cells; design: method as in Lei et al. [2017]; details: 10^−4 M, 24-h incubation, LDH leakage; ref Lei et al. [2017]; cited from earlier work
human ERα = biological target: T1, human ERα (Homo sapiens, UniProt P03372); assay: Yeast bioluminescent assay, S. cerevisiae BMAEREluc/ERα (ERE-luc reporter); format: cell-based; details: negative control, Fig. 1a
T1 construct: expressed in transfected cells; host or cells: Saccharomyces cerevisiae BMAEREluc/ERα (recombinant yeast, gift of Dr. Johanna Rajasärkkä, University of Helsinki)
T1 sequence (P03372 1-595): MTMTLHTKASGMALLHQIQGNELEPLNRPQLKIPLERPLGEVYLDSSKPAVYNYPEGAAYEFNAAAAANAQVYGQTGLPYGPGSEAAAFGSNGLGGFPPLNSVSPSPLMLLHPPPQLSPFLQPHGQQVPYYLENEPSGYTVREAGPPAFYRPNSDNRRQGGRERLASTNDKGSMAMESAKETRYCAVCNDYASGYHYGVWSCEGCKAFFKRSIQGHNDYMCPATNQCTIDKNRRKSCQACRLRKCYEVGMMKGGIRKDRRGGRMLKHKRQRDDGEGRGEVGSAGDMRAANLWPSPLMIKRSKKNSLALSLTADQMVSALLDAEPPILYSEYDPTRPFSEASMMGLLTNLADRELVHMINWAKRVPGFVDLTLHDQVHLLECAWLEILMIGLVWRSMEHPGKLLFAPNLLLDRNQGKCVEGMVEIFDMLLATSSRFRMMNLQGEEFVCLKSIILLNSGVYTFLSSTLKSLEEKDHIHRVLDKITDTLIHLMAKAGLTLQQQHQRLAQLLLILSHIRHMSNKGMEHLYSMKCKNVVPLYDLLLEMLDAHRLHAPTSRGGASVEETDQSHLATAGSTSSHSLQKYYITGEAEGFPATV
Description: as §1, with “compounds. […]” for “compounds.”
as §2, with “The plate was incubated at 30°C for approximately 2.5 h, and was then shaken briefly.” left out, “measurement. […]” for “measurement.”

[6] = MCF7, MCF-7 cells, hormone-depleted medium, MTT, read-out: EC50 (proliferative effect)

Row | Structure (SMILES) | Correction Factor (S. cerevisiae BMA64/luc; 5% DMSO, 10^−4 M) | Correction Factor (S. cerevisiae BMA64/luc; 5% DMSO, 10^−6 M) | Correction Factor (S. cerevisiae BMA64/luc; 5% DMSO, 10^−8 M) | Correction Factor (S. cerevisiae BMA64/luc; 5% DMSO, 10^−10 M) | Correction Factor (S. cerevisiae BMA64/luc; 5% DMSO, 10^−12 M) | Correction Factor (S. cerevisiae BMA64/luc; 5% DMSO, 10^−14 M) | Correction Factor (S. cerevisiae BMA64/luc; 5% ethanol, 10^−4 M) | Correction Factor (S. cerevisiae BMA64/luc; 5% ethanol, 10^−6 M) | Correction Factor (S. cerevisiae BMA64/luc; 5% ethanol, 10^−8 M) | Correction Factor (S. cerevisiae BMA64/luc; 5% ethanol, 10^−10 M) | Correction Factor (S. cerevisiae BMA64/luc; 5% ethanol, 10^−12 M) | Correction Factor (S. cerevisiae BMA64/luc; 5% ethanol, 10^−14 M) | maximum level of cytotoxicity (LDH release) (MCF-7 cells [1]) | EC50 (MCF-7 cells [2]; [6]) | efficacy (maximum induction of cell growth) compared with 17β-estradiol (MCF-7 cells [2]; MCF-7 cells, MTT) | Micronuclei per 1000 binucleated cells, Average (MCF-7 cells [3]; 10^−7 M) | Micronuclei per 1000 binucleated cells, Replicates (MCF-7 cells [3]; 10^−7 M) | Micronuclei per 1000 binucleated cells, Average (MCF-7 cells [3]; 10^−8 M) | Micronuclei per 1000 binucleated cells, Replicates (MCF-7 cells [3]; 10^−8 M) | other results
1 | CC(C)=CCc1c(O)cc(O)c2c1O[C@H](c1ccc(O)cc1)CC2=O [8-PN, 8-prenylnaringenine] | 3.27±0.64 | 3.31±0.92 | 2.62±0.30 | 2.02±0.15 | 2.32±0.56 | 2.09±0.35 | 1.05±0.21 | 0.94±0.14 | 0.97±0.04 | 1.03±0.16 | 0.92±0.14 | 0.98±0.12 | less than 2.5% | 4.98 nM | about half | 22.33 per 1000 binucleated cells | 24 per 1000 binucleated cells and 20 per 1000 binucleated cells and 23 per 1000 binucleated cells | 18.67 per 1000 binucleated cells | 16 per 1000 binucleated cells and 19 per 1000 binucleated cells and 21 per 1000 binucleated cells | mitochondrial function and ROS production (MCF-7 cells [4]): improved mitochondrial function and decreased ROS production
2 | C[C@]12CC[C@@H]3c4ccc(O)cc4CC[C@H]3[C@@H]1CC[C@@H]2O [17β-estradiol] | 3.23±0.53 | 3.42±0.81 | 2.98±0.42 | 3.11±0.47 | 2.60±0.69 | 2.59±0.23 | 1.12±0.12 | 1.08±0.05 | 1.11±0.06 |  |  |  | less than 2.5% | 0.21 nM |  | 13.33 per 1000 binucleated cells | 10 per 1000 binucleated cells and 13 per 1000 binucleated cells and 17 per 1000 binucleated cells | 13 per 1000 binucleated cells | 12 per 1000 binucleated cells and 14 per 1000 binucleated cells and 13 per 1000 binucleated cells | 
3 | CC(C)(c1ccc(O)cc1)c1ccc(O)cc1 [BPA, bisphenol A] |  |  |  |  |  |  |  |  |  |  |  |  |  |  |  |  |  |  |  | increase of MCF-7-cell mortality (MCF-7 cells [5]): more than 80%
4 | O=c1c(-c2ccc(O)cc2)coc2cc(O)cc(O)c12 [genistein] | 3.19±0.42 | 2.59±0.95 | 3.59±1.22 | 2.20±0.05 | 2.59±0.45 | 3.88±1.32 | 1.59±0.17 | 1.27±0.42 | 1.18±0.24 | 1.07±0.04 | 1.30±0.22 | 1.58±0.23 | less than 2.5% |  | about half |  |  |  |  | EC50 (MCF-7 cells [2]; MCF7, read-out: EC50 (proliferative effect)): 831 nM
5 | CC(=O)[C@H]1CC[C@H]2[C@@H]3CCC4=CC(=O)CC[C@]4(C)[C@H]3CC[C@]12C [progesterone] |  |  |  |  |  |  |  |  |  |  |  |  |  |  |  |  |  |  |  | luciferase activity (estrogenic response) (human ERα): did not produce any detectable luciferase activity
6 | CC/C(=C(\c1ccccc1)c1ccc(OCCN(C)C)cc1)c1ccccc1 [tamoxifen] | 2.87±0.04 | 2.30±0.14 | 2.54±0.17 | 2.47±0.30 | 2.51±0.21 | 2.40±0.09 | 1.35±0.25 | 1.21±0.32 | 1.50±0.27 | 1.28±0.25 | 1.23±0.16 | 1.39±0.31 |  |  |  |  |  |  |  | dose-response of proliferation (MCF-7 cells [2]; in the presence of 10^−12 M of 17β-estradiol, Fig. 2b): inverse dose-response curve
